According to article PMC8079784, “The Mechanism of Action of Antigen Processing Independent T Cell Epitopes Designed for Immunotherapy of Autoimmune Diseases” (Frontiers in Immunology, 2021):

What was measured:
[1] = tested on: autoimmune hemolytic anemia; conditions: cited from earlier work
Text: Previously we have shown that the impact of CD4 T cell epitope administration in the absence of adjuvant depends on peptide solubility. […] Importantly, however, addition of charged residues at the N- and C-termini of the band 3 epitope rendered it both soluble and immuno-modulatory. Unlike the insoluble 861-874 that both primed band 3 reactive inflammatory T cells and promoted generation of pathogenic ...

CD4 cells = assay: Intracellular cytokine staining of spleen cells for IL-10 after dose escalation; type: in vivo, mouse (Tg4); conditions: Tg4 mice, after the final 80 µg dose of dose escalation
Protocol: (§1) Tg4 mice were primed with a single dose (80μg) of 4Y in PBS by SC injection. Tolerance induction involved escalating dose immunotherapy (EDI) whereby each Tg4 or tiger-Tg4 mouse was treated with 0.08, 0.8, 8, 80, 80 and 80μg 4Y in PBS by SC injection at the right-side flank every 3rd or 4th day ([20]).
Intracellular cytokine staining of splenocytes was performed after a 3-h stimulation with phorbol 12-myristate 13-acetate (5ng/ml) and ionomycin (500ng/ml) (both Sigma-Aldrich) with GolgiStop (BD Biosciences). Cells were stained with Vβ8-FITC (clone KJ16-133, diluted 1:100) or with fixable viability dye eFluor780 (1:1,000) before surface staining with CD4-Alexa700 (GK1.5, 1:100) and fixation using IC fixation buffer (all from eBioscience). Antibodies for intracellular cytokine staining were diluted in permeabilization buffer; IL-10-allophycocyanin (APC) (JES5-16E3, 1:200), IFN-γ-PerCP-Cy5.5 (XMG1.2, 1:200) (both from eBioscience). Data were collected using an LSR II flow cytometer (BD Biosciences) and analyzed using FlowJo software (Treestar).

serum IL-2 = assay: Serum IL-2 after a single SC dose of peptide; type: in vivo, mouse (Tg4); conditions: Tg4 mice, single SC dose 80µg
Protocol: as §1
(§2) MFBI Th1/Th2 Flow Cytomix Multiplex kits (eBioscience) were used to measure the concentration of cytokines in the serum 2 h after s.c. treatment with soluble peptide.
(§3) Figure 3 Impact of soluble versus insoluble peptide treatment on T cell function in Tg4 mice. A single SC dose of soluble 4Y (80µg) induces rapid and high levels of IL-2 into the serum of Tg4 mice (A) when compared to insoluble 4Y-3LF (B). For the data shown in (C), Tg4 mice received a SC injection of 80µg MBP Ac1-9[4Y] or 4Y-3LF. Blood was removed from the tail vein at the specified times following injection, baseline was taken prior to peptide injection and the cellular fraction was stained for flow cytometry. Inguinal lymph node (ILN), brachial lymph node (BLN) and spleen were collected at 48–hours. Percentages of CD4^+ cells were gated on live singlets. […] (*p ≤ 0.05, **p ≤ 0.01, ***p ≤ 0.001, ****p ≤ 0.0001). […] Tg4 mice were given SC injections of PBS containing the indicated doses of 4Y peptide given every 3rd or 4th day (2 doses per week).

[2] = tested on: lymph node cells or splenocytes; assay: T cell anergy: ex vivo proliferation of lymph node cells or splenocytes after dose escalation; type: in vivo, mouse (Tg4); conditions: Tg4 mice, six escalating SC doses, cells three days after sixth dose, 3H-TdR at 72 hours
Protocol: as §1
Proliferation was assessed by tritiated thymidine (^3H-TdR) incorporation with either whole splenocytes or isolated APC populations and antigen-specific Tg4 responder CD4^+ T cells. Tg4 whole splenocytes were cultured in 96-well round bottom plates, 2x10^5 whole splenocytes per well, with addition of the indicated concentration of the relevant peptide. Whole splenocytes from B10.PL mice that had received CD4^+ CD45.1^+ T cells followed by CD11c^+ cells were cultured in 48–well plates at 1.25x10^6 per well. […] Levels of incorporated radioactivity were assessed from the dried filter papers, sealed in sample bags (Wallac, Milton Keynes, UK) with 3ml scintillation fluid, ^3H-TdR incorporation was measured on a 1450 MicroBeta liquid scintillation counter (Wallac).
Figure 2 Peptide solubility predicts accessibility to steady state DC and determines tolerance induction: The 4Y peptide was rendered increasingly insoluble by addition of LF motifs. […] Proliferation was measured by tritiated thymidine (^3H-TdR) incorporation at 72 hours. […]

serum IL-10 = assay: Serum IL-10 during dose escalation of SC peptide; type: in vivo, mouse (Tg4); conditions: Tg4 mice, SC dose escalation 0.08 to 80µg every 3rd or 4th day
Protocol: as §1, §2, §3

splenic CD11c+ DC = assay: In vivo APC targeting after SC peptide: ex vivo presentation to naive Tg4 CD4+ T cells; parameters: species or system mouse (B10.PL); conditions: 80µg SC, proliferation of Tg4 CD4+ T cells in vitro
Text: CD11c^+ cells were isolated from whole splenocytes in MACS buffer using the CD11c microbead positive selection kit (Miltenyi Biotec, Surrey, UK) as per the manufacturer’s instructions. Single cell suspensions were used for magnetic selection using the EasySep Mouse B Cell Isolation kit or EasySep Mouse Monocyte Enrichment kit (both Stemcell Technologies, Grenoble, France) as per the manufacturer’s instructions. In the B10.PL APC targeting experiments, single cell suspensions (without digestion) of Tg4 splenocytes were counted and T cells isolated using Magnisort® Mouse CD4 T cell isolation kit (affymetrix, eBioscience, Hatfield, UK) as per the manufacturer’s instructions. Cells were either enriched by magnetic sorting prior to fluorescence-activated cell sorting (FACS) or sorted from splenocytes. […] Peptide bound to APC was detected in vitro by activation of naïve Tg4 cells, as evidenced through ^3H.thymidine incorporation. […] Peptide bound to APC was detected in vitro by activation of CD4^+ T cells from the lymph nodes and spleen of HLA-DR3 transgenic mice immunized with the 5D peptide in CFA. T cell activation was detected by interferon gamma secretion over 3 days.
Proliferation was assessed by tritiated thymidine (^3H-TdR) incorporation with either whole splenocytes or isolated APC populations and antigen-specific Tg4 responder CD4^+ T cells. […]

Tg4 splenocytes = assay: In vitro antigenicity: proliferation of Tg4 splenocytes (3H-TdR); type: cell-based, mouse; conditions: 2x10^5 per well, 3H-TdR at d3; limiting dose 1 ng/ml
Protocol: Proliferation was assessed by tritiated thymidine (^3H-TdR) incorporation with either whole splenocytes or isolated APC populations and antigen-specific Tg4 responder CD4^+ T cells. Tg4 whole splenocytes were cultured in 96-well round bottom plates, 2x10^5 whole splenocytes per well, with addition of the indicated concentration of the relevant peptide. Whole splenocytes from B10.PL mice that had received CD4^+ CD45.1^+ T cells followed by CD11c^+ cells were cultured in 48–well plates at 1.25x10^6 per well. Isolated populations were plated out at 5x10^4/well CD4^+ T cells, with either equal numbers of CD11c^+ DC, B cells or monocytes enriched as specified. Cells were cultured at 37°C, 5% CO2. At 24 and 72 hours, supernatant was taken for cytokine analysis and medium was supplemented with 0.5µCi ^3H-TdR (GE Healthcare Lifesciences, UK) for 16 hours. Plates were frozen at –20°C in preparation for later harvesting with a Tomtec harvester onto filter papers (Cox Scientific, Kettering, UK). Levels of incorporated radioactivity were assessed from the dried filter papers, sealed in sample bags (Wallac, Milton Keynes, UK) with 3ml scintillation fluid, ^3H-TdR incorporation was measured on a 1450 MicroBeta liquid scintillation counter (Wallac).

| Substance | Effect of intranasal administration in NZB mice ([1]; intranasal, no adjuvant) | Solubility of band 3 peptide ([1]; mouse, in vivo) | CD4 cells producing IL-10 (intracellular cytokine staining of spleen cells) (CD4 cells) | Time of peak serum IL-2 after SC injection (serum IL-2) [h] | Ex vivo proliferation of lymph node cells or splenocytes stimulated with the Ac1-9 peptide [2] | IL-10 detectable in serum (serum IL-10) | Presentation by splenic CD11c+ DC collected 2h after SC administration (splenic CD11c+ DC) | Antigenicity: proliferation of Tg4 splenocytes in vitro (Tg4 splenocytes) |
| --- | --- | --- | --- | --- | --- | --- | --- | --- |
| 861-874: insoluble peptide epitope from the red blood cell band 3 protein (FVLILTVPLRRVLL; UniProt P02730 861-874, looked up, fragment) [Peptide 861-874] | promote autoimmunity | insoluble |  |  |  |  |  |  |
| Ac-ASQYRPSLFLFLF-NH2 [Peptide 4Y-3LF] |  |  | close to background levels | 8 | partially suppressed | No IL-10 was detectable | barely detectable | significantly weaker |
